Consider one compound from patent US20110021554A1, “IMMUNE RESPONSE MODIFIER FORMULATIONS AND METHODS” (priority 2004, published 2011).

A short description of the series: Effect of sodium chloride on solubility of the drug. The series is classed as physicochemical. As to conditions: apparently due to salt formation.

SMILES strings stand for the structures.

Take `CCc1nc2c(N)nc3ccccc3c2n1CCCCNS(C)(=O)=O` [N-[4-(4-amino-2-ethyl-1H-imidazo[4,5-c]quinolin-1-yl)butyl]methanesulfonamide]: the “Solubility of the drug in presence of sodium chloride” value is given as “reduces solubility of the drug”.
